Converted amounts (≈) assume the structure as drawn. Blank lines part the entries; values can stand above or below the molecule they belong to.
Columns and labels:
AKT3 [1] = biological target: T1, AKT3 (Homo sapiens, UniProt Q9Y243); assay: cell-based; details: read-out: AKT cel (Ex. C.6): pIC50 values (converted)
Target sequence in this assay (Q9Y243 whole entry): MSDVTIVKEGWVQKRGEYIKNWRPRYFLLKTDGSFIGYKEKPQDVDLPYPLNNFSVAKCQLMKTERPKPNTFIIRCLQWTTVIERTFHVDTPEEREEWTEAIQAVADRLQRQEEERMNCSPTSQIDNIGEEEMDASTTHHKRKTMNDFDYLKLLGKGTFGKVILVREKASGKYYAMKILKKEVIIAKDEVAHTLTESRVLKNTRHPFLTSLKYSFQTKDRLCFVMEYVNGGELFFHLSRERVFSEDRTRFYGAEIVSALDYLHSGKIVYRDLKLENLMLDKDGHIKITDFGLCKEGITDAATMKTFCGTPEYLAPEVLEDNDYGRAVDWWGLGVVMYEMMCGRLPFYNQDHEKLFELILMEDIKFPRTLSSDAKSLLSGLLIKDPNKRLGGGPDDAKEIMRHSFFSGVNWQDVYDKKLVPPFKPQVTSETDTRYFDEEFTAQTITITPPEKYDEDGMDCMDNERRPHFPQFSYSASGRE

CDK4 = CDK4 (Homo sapiens, UniProt P11802); assay: biochemical; details: read-out: CDK4 SPA (Ex. C.1): pIC50 values (converted)
AKT3 [2] = biological target: T1, AKT3; assay: biochemical; details: read-out: AKT3 pep. (Ex. C.3): pIC50 values (converted)
Target sequence in this assay (Q9Y243 whole entry, species assumed): as the sequence (Q9Y243 whole entry) above

CDC25B = biological target: T2, CDC25B (Homo sapiens, UniProt P30305); assay: biochemical; details: read-out: CDC25B WT (Ex. C.5): pIC50 values (converted)
T2 sequence (P30305 1-580): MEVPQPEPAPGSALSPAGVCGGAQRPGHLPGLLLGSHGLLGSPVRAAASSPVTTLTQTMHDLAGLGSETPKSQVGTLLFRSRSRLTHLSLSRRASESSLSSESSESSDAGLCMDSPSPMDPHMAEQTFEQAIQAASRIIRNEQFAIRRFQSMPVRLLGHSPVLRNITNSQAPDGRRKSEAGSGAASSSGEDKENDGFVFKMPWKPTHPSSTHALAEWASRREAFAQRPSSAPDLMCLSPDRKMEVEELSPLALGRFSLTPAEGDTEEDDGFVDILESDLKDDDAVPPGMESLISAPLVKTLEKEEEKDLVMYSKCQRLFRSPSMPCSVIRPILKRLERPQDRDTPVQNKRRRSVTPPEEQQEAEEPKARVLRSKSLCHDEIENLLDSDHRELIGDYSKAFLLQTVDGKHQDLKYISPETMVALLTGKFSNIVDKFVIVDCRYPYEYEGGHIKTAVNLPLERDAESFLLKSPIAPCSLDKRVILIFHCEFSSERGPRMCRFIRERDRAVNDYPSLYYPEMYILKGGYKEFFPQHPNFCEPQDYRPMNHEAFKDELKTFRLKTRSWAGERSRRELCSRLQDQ

physchem = details: pH 7.4, aqueous buffer, kinetic from dmso stock
A2780 cells = assay: Cytotox survival of A2780 cells after 3 days; assay type: cell-based; details: Homo sapiens, A2780, 72 h, read-out: Cytotox survival of A2780 cells after 3 days - pIC50 values, A2780 cells, 3 days (converted)
Procedure: In an alternative assay, the growth inhibitory effect of the compounds was tested on the ovarian carcinoma cell line A2780 using art known cytotoxicity assays such as LIVE/DEAD (Molecular Probes) MTT.

CDK4, sequence (P11802 whole entry, species assumed): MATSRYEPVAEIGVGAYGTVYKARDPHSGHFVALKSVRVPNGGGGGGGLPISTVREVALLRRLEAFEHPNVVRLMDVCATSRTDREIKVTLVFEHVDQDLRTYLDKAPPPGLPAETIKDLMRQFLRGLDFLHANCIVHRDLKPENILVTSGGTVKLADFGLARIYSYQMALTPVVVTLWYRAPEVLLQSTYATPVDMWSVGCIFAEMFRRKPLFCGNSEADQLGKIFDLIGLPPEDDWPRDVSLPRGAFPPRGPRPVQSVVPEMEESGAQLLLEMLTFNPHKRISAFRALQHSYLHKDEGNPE
CDK4, sequence (P24385 whole entry partner, species assumed): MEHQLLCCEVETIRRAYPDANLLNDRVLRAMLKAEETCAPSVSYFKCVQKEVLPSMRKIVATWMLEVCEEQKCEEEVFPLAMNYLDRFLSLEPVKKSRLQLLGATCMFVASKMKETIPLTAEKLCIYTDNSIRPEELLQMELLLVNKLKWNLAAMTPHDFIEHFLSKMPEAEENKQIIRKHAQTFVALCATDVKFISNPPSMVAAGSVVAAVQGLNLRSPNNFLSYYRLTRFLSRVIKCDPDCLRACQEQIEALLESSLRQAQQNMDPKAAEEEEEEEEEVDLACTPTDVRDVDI

SMILES: COc1cc(-c2nc3c(=O)n(C)c(=O)nc-3n(C(C)C)n2)ccc1OCCN1CCCCC1
melting point: 222 °C

SMILES: CCOC(=O)C(C)n1nc(-c2ccccc2)nc2c(=O)n(C)c(=O)nc1-2 (stereo not shown)
melting point: 215 °C

SMILES: Cn1nc(-c2ccccc2)nc2c(=O)n(C3CCN(C(=O)OC(C)(C)C)CC3)c(=O)nc1-2
melting point: > 250 °C

SMILES: CC(C)n1nc(-c2ccc(CNC3CCNCC3)cc2)nc2c(=O)n(C)c(=O)nc1-2 [Compound 98]
IC50 (AKT3 [1]): > 3000 nM
IC50 (CDK4): 200 nM
IC50 (AKT3 [2]): 194 nM
IC50 (CDC25B): 58.5 nM
solubility (physchem): > 1800 µM
IC50 (A2780 cells): 488 nM

SMILES: CC(C)n1nc(-c2ccc(OCCCN3CCCCC3)cc2)nc2c(=O)n(C)c(=O)nc1-2 [Compound 81]
IC50 (AKT3 [1]): > 1000 nM
IC50 (CDK4): 194 nM
IC50 (AKT3 [2]): 252 nM
IC50 (CDC25B): 38.9 nM
solubility (physchem): > 1800 µM
IC50 (A2780 cells): 132 nM

SMILES: COc1cc(-c2nc3c(=O)n(C)c(=O)nc-3n(C(C)C)n2)cc(OC)c1OS(=O)(=O)N(C)C [Compound 86]
IC50 (AKT3 [1]): > 1000 nM
IC50 (CDK4): 272 nM
IC50 (AKT3 [2]): 273 nM
IC50 (CDC25B): 38.6 nM
solubility (physchem): 160 to 1800 µM (≈ 76.9 to 865 µg/mL)
IC50 (A2780 cells): 264 nM

Second part, the molecule after the results:

melting point: 232 °C
SMILES: CC(C)n1nc(-c2ccc(OCCN3CCOCC3)cc2)nc2c(=O)n(C)c(=O)nc1-2

melting point: 233 °C
SMILES: COc1cc(-c2nc3c(=O)n(C)c(=O)nc-3n(C(C)C)n2)ccc1OCCN1CCN(C)CC1

melting point: 250 °C
SMILES: Cn1c(=O)nc2n(C3CCN(C(=O)OC(C)(C)C)CC3)nc(-c3ccccc3)nc-2c1=O

melting point: 239 °C
SMILES: COc1cc(-c2nc3c(=O)n(C)c(=O)nc-3n(C)n2)ccc1OCCN1CCN(C)CC1

melting point: 187.5 to 209 °C
SMILES: COc1cc(-c2nc3c(=O)n(C)c(=O)nc-3n(C3CCCC3)n2)cc(OC)c1OCCN1CCOCC1

melting point: 216 °C
SMILES: CCCC(C)n1nc(-c2ccccc2)nc2c(=O)n(C)c(=O)nc1-2 (stereo not shown)

melting point: > 250 °C
SMILES: Cn1c(=O)nc2n(C3CCNCC3)nc(-c3ccccc3)nc-2c1=O

Source: US20050239784A1 (priority 2002, published 2005)
